Data set [1] relates to ThyX. The settings on record: cited from earlier work.
The subject of data set [2] is viral pathogens. Kind of data set: Evaluation on viral pathogens.
The target in data set [3] is T1, Mtb ThyX (Mycobacterium tuberculosis, UniProt P9WG57). Kind of data set: M. tuberculosis ThyX tritium release assay. It counts as biochemical. The settings on record: 200 µM compound; for ThyX inhibition, tritium release assay: 200 µM.
Data set [4] concerns the target T1, Mtb ThyX. The data set can be described thus: M. tuberculosis ThyX NADPH oxidase assay. It counts as biochemical. The settings on record: for Inhibition % (Mtb ThyX) / inhibition at 200 µM: 200 μM compound.
A short description of data set [5]: in vitro. The settings on record: human. The data set is classed as cell-based. Here is the method: Assays were performed in human peripheral blood mononuclear (PBM) cells via MTS assay using the CellTiter 96® Non-Radioactive Cell Proliferation (Promega) kit. Cytotoxicity was expressed as the concentration of test compounds that inhibited cell growth by 50% (CC50).

[6] abbreviates: 50 µM inhibitor concentration, read-out: ThyX inhibition at 50 µM of inhibitors.
Setting [7] is: NADPH oxidase assay, 50 µM FAD, read-out: Inhibition % (Mtb ThyX).
Where [8] appears, read: absence of added FAD, read-out: ThyX inhibition without FAD addition.

Where two headings read alike, the source gives them in different places. Where only a bound is given, the exact number is not on record here.

T1 sequence (P9WG57 whole entry): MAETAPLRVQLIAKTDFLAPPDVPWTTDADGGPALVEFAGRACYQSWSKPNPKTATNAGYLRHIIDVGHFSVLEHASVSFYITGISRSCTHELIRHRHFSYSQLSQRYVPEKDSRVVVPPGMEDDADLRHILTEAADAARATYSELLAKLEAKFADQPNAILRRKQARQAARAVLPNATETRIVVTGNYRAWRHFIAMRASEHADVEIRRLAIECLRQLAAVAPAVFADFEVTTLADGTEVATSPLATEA

Take `CCOC(=O)[C@@H]1CSC(c2ccccc2)N1C(=O)c1cn(CCCNC(=O)C(F)(F)F)nn1` (some centres unmarked) [Compound 1]: the IC50 (as a rule, the concentration at which inhibition is half-maximal) in data set [1] (read-out: IC50 against ThyX) is 57 nM.
For the molecule `O=C1C(O)=C(c2ccco2)C(=O)c2ccccc21` [Compound 2], the Ki (commonly the equilibrium dissociation constant of an inhibitor or competing ligand from its target) in data set [1] (read-out: inhibitory Ki against ThyX) is 28 nM.
In the case of `CCCCCCCC(=O)NCC#Cc1cn(C2CC(O)C(COP(=O)(O)O)O2)c(=O)[nH]c1=O` (centres unmarked) [Compound 3], the IC50 in data set [1] (C5-modified dUMP analogs, read-out: IC50) is 910 nM.
On to `O=c1[nH]c2c(nc3ccccn32)c(=O)n1-c1ccc(F)cc1` [Compound 9a, 3-(4-Fluorophenyl)pyrido [1,2-e]purine-2,4(1H,3H)-dione], for which, in data set [2], the “activity on viral pathogens” value is listed as “some promiscuous activity”. The toxicity result in data set [2] (evaluation on viral pathogens) was “without toxicity”. Further, the inhibition (usually the relative decrease from the control value, in per cent) at 200 µM in data set [3] is 59.5%; in data set [4] (setting [7]), 59.5%; in data set [4] (setting [8]), 76.1%. The inhibition at 50 µM in data set [4] (setting [6]) stood at 18.4%. For the same molecule, in data set [4] (NADPH oxidase assay, 50 µM FAD), the “Inhibition % (Mtb ThyX)” value was determined as 59.4%. Moreover, the IC50 in data set [4] (calculated for 9a) was 95 µM.
Turning to `O=c1[nH]c2c(nc3ccccn32)c(=O)n1-c1ccc(Cl)cc1` [Compound 9b, 3-(4-Chlorophenyl)pyrido [1,2-e]purine-2,4(1H,3H)-dione], the inhibition at 200 µM is 77.1% in data set [3], 49.8% in data set [4] (setting [7]) and 12.6% in data set [4] (setting [8]). The “ThyX inhibition, tritium release assay” value in data set [3] is reported as 69.2%. Also, the inhibition at 50 µM in data set [4] (setting [6]) amounted to 2.2%.
Consider `Cc1ccc(-n2c(=O)[nH]c3c(nc4ccccn43)c2=O)cc1` [Compound 9d, 3-(p-Tolyl)pyrido [1,2-e]purine-2,4(1H,3H)-dione], for which the inhibition at 200 µM in data set [3] came out at 69.2%; in data set [4] (setting [7]) it was 55%; in data set [4] (setting [8]), 20.4%. Besides, in data set [3], the “ThyX inhibition, tritium release assay” value is given as 77.1%. Moreover, in data set [4] (setting [6]), the inhibition at 50 µM stood at 2.6%. The “Inhibition % (Mtb ThyX)” value in data set [4] (NADPH oxidase assay, 50 µM FAD) came out at 55.4%.
For `O=c1[nH]c2c(nc3cc(-c4ccc(OC(F)(F)F)cc4)ccn32)c(=O)n1-c1ccc(F)cc1` [Compound 22d, 3-(p-fluorophenyl)-7-[p-(trifluoromethoxy)phenyl]-1H-purino [9,8-a]pyridine-2,4-dione], the inhibition at 200 µM in data set [4] (setting [7]) is at most 28%.
As for `O=c1[nH]c2c(nc3cc(-c4ccc(F)cc4)ccn32)c(=O)n1-c1ccc(F)cc1` [Compound 22e, 3,7-Bis(p-fluorophenyl)-1H-purino [9,8-a]pyridine-2,4-dione], the inhibition at 200 µM in data set [4] (setting [7]) is at most 28%.
For `O=c1[nH]c2c(nc3ccc(-c4ccccc4)cn32)c(=O)n1-c1ccc(F)cc1` [Compound 23a, 3-(p-Fluorophenyl)-8-phenyl-1H-purino [9,8-a]pyridine-2,4-dione], the inhibition at 200 µM in data set [4] (setting [7]) is 84.3%. Further, in data set [5], the CC50 (commonly the concentration that lowers cell viability or growth by half) was above 100 µM.
Consider `Cc1ccc(-c2ccc3nc4c(=O)n(-c5ccc(F)cc5)c(=O)[nH]c4n3c2)cc1` [Compound 23b, 3-(p-Fluorophenyl)-8-(p-tolyl)-1H-purino [9,8-a]pyridine-2,4-dione], for which the inhibition at 200 µM in data set [4] (setting [7]) stood at 44.4%.
The same measure, in the same setting: with `COc1ccc(-c2ccc3nc4c(=O)n(-c5ccc(F)cc5)c(=O)[nH]c4n3c2)cc1` [Compound 23c, 3-(p-Fluorophenyl)-8-(p-methoxyphenyl)-1H-purino [9,8-a]pyridine-2,4-dione] the figure was 35.4%; with `O=c1[nH]c2c(nc3ccc(-c4ccc(OC(F)(F)F)cc4)cn32)c(=O)n1-c1ccc(F)cc1` [Compound 23d, 3-(p-Fluorophenyl)-8-[p-(trifluoromethoxy)phenyl]-1H-purino [9,8-a]pyridine-2,4-dione], 29.4%.
For the molecule `O=c1[nH]c2c(nc3ccc(-c4ccc(F)cc4)cn32)c(=O)n1-c1ccc(F)cc1` [Compound 23e, 3,8-Bis(p-Fluorophenyl)-1H-purino [9,8-a]pyridine-2,4-dione], in data set [4] (setting [7]), the inhibition at 200 µM stood at 43.1%.
For the molecule `Cc1cc(N2CCN(C(=O)CCN3C(=O)COc4ccccc43)CC2)nc(C(C)C)n1` [Compound B1-PP146, reference compound], in data set [1] (read-out: IC50 against ThyX), the IC50 was 690 nM. Moreover, in data set [4] (positive control, value at 50 μM, NADPH oxidase assay, read-out: Inhibition % (Mtb ThyX)), the inhibition at 50 µM stood at 95.1%.

(Values after article PMC9571937, “Synthesis and Structure–Activity Relationship Studies of Pyrido [1,2-e]Purine-2,4(1H,3H)-Dione Derivatives Targeting Flavin-Dependent Thymidylate Synthase in Mycobacterium tuberculosis” (Molecules, 2022).)
